Where a name gives a salt, the structure may show the parent alone.

As for `C[N+]1([O-])CCCCC1C(NC(=O)c1cccc(C(F)(F)F)c1Cl)c1ccccc1` (centres unmarked) (as salt: HCl) [Compound No. 69], the melting point fell in the range of 126 to 128 °C.
In turn, `C[N+]1([O-])CCCCC1C(NC(=O)c1cccc(C(F)(F)F)c1Cl)c1ccccc1` (centres unmarked) (as salt: HCl) [Compound No. 70] displayed a melting point of 100 to 102 °C.

As a reminder, the melting point is the temperature, or range, at which the solid turns liquid.

The values are drawn from patent publication US7326722B2, “N-[Phenyl(piperidin-2-yl)methyl]benzamide derivatives, their preparation and their application in therapy” (Sanofi-Aventis, priority 2002, dated 2008).
